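Here, GI50 denotes the concentration required for 50% inhibition of growth. The concentration for full growth arrest is given as TGI.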
What was measured:
Test in all cases: inhibition of tumour cell growth, NCI panel, 384-well format
A498 renal = tested on: A498 renal
ACHN renal = tested on: ACHN renal
CCRF-CEM leukemia = tested on: CCRF-CEM leukemia
HCC-2998 colon = tested on: HCC-2998 colon
HCT-15 colon = tested on: HCT-15 colon
HL-60(TB) leukemia = tested on: HL-60(TB) leukemia
HOP-92 NSCLC = tested on: HOP-92 NSCLC
HT29 colon = tested on: HT29 colon
IGROV1 ovarian = tested on: IGROV1 ovarian
LOX IMVI melanoma = tested on: LOX IMVI melanoma
M14 melanoma = tested on: M14 melanoma
MALME-3M melanoma = tested on: MALME-3M melanoma
MCF7 breast = tested on: MCF7 breast
MDA-MB-231 breast = tested on: MDA-MB-231 breast
MDA-MB-435 melanoma = tested on: MDA-MB-435 melanoma
MDA-MB-468 breast = tested on: MDA-MB-468 breast
MOLT-4 leukemia = tested on: MOLT-4 leukemia
NCI-H226 lung = tested on: NCI-H226 lung
NCI-H322M lung = tested on: NCI-H322M lung
OVCAR-3 ovarian = tested on: OVCAR-3 ovarian
OVCAR-4 ovarian = tested on: OVCAR-4 ovarian
OVCAR-5 ovarian = tested on: OVCAR-5 ovarian
RPMI-8226 leukemia = tested on: RPMI-8226 leukemia
RXF 393 renal = tested on: RXF 393 renal
SF-295 CNS = tested on: SF-295 CNS
SK-MEL-2 melanoma = tested on: SK-MEL-2 melanoma
SK-MEL-28 melanoma = tested on: SK-MEL-28 melanoma
SK-MEL-5 melanoma = tested on: SK-MEL-5 melanoma
SK-OV-3 ovarian = tested on: SK-OV-3 ovarian
SR leukemia = tested on: SR leukemia
SW-620 colon = tested on: SW-620 colon
TK-10 renal = tested on: TK-10 renal
UACC-257 melanoma = tested on: UACC-257 melanoma
UACC-62 melanoma = tested on: UACC-62 melanoma
UO-31 renal = tested on: UO-31 renal

Structure (SMILES): O=C(c1cc(-c2cc3c(cc2C(=O)N2Cc4ccccc4C[C@H]2CN2CCOCC2)OCO3)n2c1CCCC2)N(c1ccccc1)c1ccc(O)cc1
- GI50 (A498 renal): 0.806 µM
- TGI (A498 renal): 3.57 µM
- GI50 (ACHN renal): 4.91 µM
- TGI (ACHN renal): > 100 µM
- GI50 (CCRF-CEM leukemia): 0.255 µM
- TGI (CCRF-CEM leukemia): 0.618 µM
- GI50 (HCC-2998 colon): 1.27 µM
- TGI (HCC-2998 colon): 2.83 µM
- GI50 (HCT-15 colon): 1.75 µM
- TGI (HCT-15 colon): 3.22 µM
- GI50 (HL-60(TB) leukemia): 0.146 µM
- TGI (HL-60(TB) leukemia): 0.28 µM
- GI50 (HOP-92 NSCLC): 0.502 µM
- TGI (HOP-92 NSCLC): 2.42 µM
- GI50 (HT29 colon): 0.419 µM
- TGI (HT29 colon): 1.46 µM
- GI50 (IGROV1 ovarian): 2.77 µM
- TGI (IGROV1 ovarian): > 100 µM
- GI50 (LOX IMVI melanoma): 1.42 µM
- TGI (LOX IMVI melanoma): 3.25 µM
- GI50 (M14 melanoma): 0.475 µM
- TGI (M14 melanoma): 1.7 µM
- GI50 (MALME-3M melanoma): 0.473 µM
- TGI (MALME-3M melanoma): 4.71 µM
- GI50 (MCF7 breast): 0.412 µM
- TGI (MCF7 breast): 3 µM
- GI50 (MDA-MB-231 breast): 1.19 µM
- TGI (MDA-MB-231 breast): 3.23 µM
- GI50 (MDA-MB-435 melanoma): 0.144 µM
- TGI (MDA-MB-435 melanoma): 0.351 µM
- GI50 (MDA-MB-468 breast): 0.214 µM
- TGI (MDA-MB-468 breast): 0.456 µM
- GI50 (MOLT-4 leukemia): 0.182 µM
- TGI (MOLT-4 leukemia): 0.327 µM
- GI50 (NCI-H226 lung): 1.01 µM
- TGI (NCI-H226 lung): 3.18 µM
- GI50 (NCI-H322M lung): 2.43 µM
- TGI (NCI-H322M lung): > 100 µM
- GI50 (OVCAR-3 ovarian): 0.21 µM
- TGI (OVCAR-3 ovarian): 0.497 µM
- GI50 (OVCAR-4 ovarian): 1.29 µM
- TGI (OVCAR-4 ovarian): 4.43 µM
- GI50 (OVCAR-5 ovarian): 2.76 µM
- TGI (OVCAR-5 ovarian): 8.21 µM
- GI50 (RPMI-8226 leukemia): 0.207 µM
- TGI (RPMI-8226 leukemia): 0.437 µM
- GI50 (RXF 393 renal): 0.137 µM
- TGI (RXF 393 renal): 0.484 µM
- GI50 (SF-295 CNS): 2.04 µM
- TGI (SF-295 CNS): 4.28 µM
- GI50 (SK-MEL-2 melanoma): 0.176 µM
- TGI (SK-MEL-2 melanoma): 0.704 µM
- GI50 (SK-MEL-28 melanoma): 0.735 µM
- TGI (SK-MEL-28 melanoma): 2.6 µM
- GI50 (SK-MEL-5 melanoma): 0.305 µM
- TGI (SK-MEL-5 melanoma): 0.928 µM
- GI50 (SK-OV-3 ovarian): 0.356 µM
- TGI (SK-OV-3 ovarian): 1.46 µM
- GI50 (SR leukemia): 0.0773 µM
- TGI (SR leukemia): 0.206 µM
- GI50 (SW-620 colon): 0.444 µM
- TGI (SW-620 colon): 1.54 µM
- GI50 (TK-10 renal): 2.83 µM
- TGI (TK-10 renal): > 100 µM
- GI50 (UACC-257 melanoma): 0.362 µM
- TGI (UACC-257 melanoma): 1.25 µM
- GI50 (UACC-62 melanoma): 0.356 µM
- TGI (UACC-62 melanoma): 1.82 µM
- GI50 (UO-31 renal): 4.17 µM
- TGI (UO-31 renal): > 100 µM
